Experimental data taken from patent US9895381B2, “Vitamin D receptor agonists to treat diseases involving CXCL12 activity” (Salk Institute for Biological Studies, priority 2013, dated 2018).

Legend:
MiaPaCa-2 cells = experiment: CAPSC conditioned media experiments; format: cell-based, human; details: CM from Cal-treated CAPSCs (100 nM, 48 h), 48 h on MiaPaCa-2
Description: Primary […] were grown to 100% confluency. Fresh media was added to the cultures, and at this time, […] were treated with 100 nM calcipotriol. After 48 h, conditioned media was harvested, sterile-filtered through 0.45 μm pores, and added to pancreatic cancer cells (PCCs) at 50-60% confluency. PCCs were treated directly with 100 nM calcipotriol at the onset of conditioned media incubation. After 48 h, PCCs were harvested and RNA and protein isolated for analysis.

primary human CAPSCs = experiment: Lipid droplet accumulation assay (BODIPY 493/503); format: cell-based; details: 100 nM Cal, 48 h; samples responding / samples tested
Description: Primary human CAPSCs were seeded onto glass coverslips. After overnight attachment, cells were treated with vehicle (DMSO) or 100 nM calcipotriol for 48 h. Media was aspirated, cells were washed twice with PBS (Gibco) and fixed in 10% buffered formalin at room temperature for 15 minutes. Fixative was removed and cells were washed three times with PBS. Cells were then stained with 1 μg/ml 4,4-Difluoro-1,3,5,7,8-Pentamethyl-4-Bora-3a,4a-Diaza-s-Indacene (BODIPY 493/503, Molecular Probes) for 1 h at room temperature, protected from light. Dye was removed and cells were washed three times with PBS, then mounted using Vectastain mounting medium (Vector Labs). Fluorescence was visualized through the GFP filter on a Leica DM5000B fluorescent microscope and quantification performed using ImageJ.

[1] = tested on: KPC mice with pancreatic ductal adenocarcinoma; experiment: KPC mouse PDA study; format: in vivo; details: Cal alone
Description: KPC mice with pancreatic ductal adenocarcinoma were used based on tumor size, as described previously (Olive et al., 2009). In this study, enrollment was restricted to mice with tumors of a mean diameter between 6 and 9 mm, as determined by high resolution ultrasound imaging. Suitable mice were assigned to a treatment group: gemcitabine; calcipotriol; or gemcitabine and calcipotriol combination. Gemcitabine was administered as a saline solution at 100 mg/kg by intraperitoneal injection, once every three days; when appropriate, a final dose was given two hours prior to euthanasia. Calcipotriol was administered as a saline solution daily at 60 μg/kg by intraperitoneal injection. […]
LC-MS/MS was performed as described by Bapiro et al. (Bapiro et al., 2011). […] Analytes were separated using a gradient of acetonitrile in 10 mM ammonium acetate, pH 10 and detected using a Thermo LTQ-XL mass spectrometer (Thermo Fisher Scientific). Drugs recoveries were normalized using the internal standards and quantified using calibration standards generated from untreated tissue homogenates as described (Bapiro et al., 2011).
Tumors harvested from treated KPC mice were immediately fixed in buffered formalin. […] CD31-positive area was quantified in each section using Nuance software. […] Total tumor cells were quantified per field, as well as total and percent CC3-positive tumor cells per field. […]

For C=C1/C(=C\C=C2/CCC[C@]3(C)[C@@H]([C@H](C)/C=C/[C@@H](O)C4CC4)CC[C@@H]23)C[C@@H](O)C[C@@H]1O [Cal, 1α,24-(OH)2-24-cyclopropyl-D3], the “gene expression changes induced by CAPSC conditioned media” value (MiaPaCa-2 cells) was “largely abrogated”, the “lipid droplet formation, primary patient samples” value (primary human CAPSCs) was 19/27 and the “efficacy as a single agent” value [1] was “no measurable beneficial effects”.
